{"source": "paper PMC7614683", "about": "“A small molecule PI3Kα activator for cardioprotection and neuroregeneration” (Nature, 2023)", "tested_on": "PI3Kα-WT A549 cells", "assay": "TIRF microscopy of PIP3 reporter, PI3Kα-WT A549", "format": "cell-based, human", "conditions": "1938, then BYL719 0.5 μM", "method": "Phosphoinositide reporters used were GFP-PH-ARNO^I303Ex2 (PIP3 reporter[41]) and mCherry-cPH-TAPP1x3 (PI(3,4)P2 reporter[41]). TIRF microscopy allows selective imaging of the small cell volume, including the plasma membrane, directly adjacent to the coverslip onto which cells have been seeded. HeLa or A549 cells were seeded in Matrigel-coated (Corning #354230; diluted in Opti-MEM at 1:50) 8-well chamber slides (glass bottom, 1.55 refractive index; Thermo Fisher Scientific #155409) at a density of 5,000 cells/well. […]\nImage analyses of total reporter intensities were performed with the Fiji open source image analysis package. The region of interest (ROI) corresponding to the footprint of the individual cell across time points were defined using minimal intensity projection to select only pixels present across all time points, following prior subtraction of camera noise (rolling ball method, radius = 500 pixels) and xy drift correction, intensity levels over time were measured. […] All other quantifications were performed using the open source software R/RStudio. The values plotted in Fig. 3d (iii) represent mean±SEM, following signal scaling to minimum and maximum values of the normalised fluorescence intensity for each time point (Fn(t)). […]"}
{"smiles": "CCN1CCN(c2ccc(Nc3cc(Nc4cccc5c4N(C(C)=O)CC5)ccn3)cc2)CC1", "note": "[Compound 1938]", "values": [{"measurement": "plasma membrane PIP3 (biosensor)", "value": "acute plasma membrane-associated PIP3 production"}]}
